Measurements from US20260198497A1, “A BENZENE RING-SUBSTITUTED PYRIMIDINECARBOXYLIC ACID COMPOUND, PREPARATION METHOD THEREFOR, HERBICIDAL COMPOSITION AND APPLICATION THEREOF” (QINGDAO KINGAGROOT CHEMICAL COMPOUND CO., LTD., priority 2023, published 2026).

What was measured:
Veronica [1] = assay: Post-emergence test on weeds; assay type: in vivo; set-up: key: 0 = no effect, 9 = completely dead (levels by growth control rate); conditions: 30 g a.i./ha, 3 weeks after application
Summary of the method: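 Sow in pots, cover 0.5-2 cm soil, greenhouse; spray at 2-3 leaf (2 wk); acetone/Tween 80 formulation + methyl oleate 1.5 L/ha; 120/60/30/15 g a.i./ha, n=3; score 0-9 on fresh-wt control at 3 wk.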

Chinese cabbage = assay: Post-emergence test, crop safety; conditions: in vivo, 3 weeks
From the text: (§1) The criteria for activity levels of plant damage (i.e., growth control rate) are as follows: • Level 9: completely dead; • Level 8: growth control rate is greater than or equal to 90% and less than 100%; • Level 7: growth control rate is greater than or equal to 80% and less than 90%; • Level 6: growth control rate is greater than or equal to 70% and less than 80%; • Level 5: growth control rate is greater than or equal to 50% and less than 70%; • Level 4: growth control rate is greater than or equal to 30% and less than 50%; • Level 3: growth control rate is greater than or equal to 20% and less than 30%; • Level 2: growth control rate is greater than or equal to 10% and less than 20%; • Level 1: growth control rate is less than 10%; • Level 0: no effect.
(§2) The above growth control rates are fresh weight control rates.
(§3) Monocotyledonous and dicotyledonous weed seeds (Descurainia sophia, Capsella bursa-pastoris, Abutilon theophrasti, Galium spurium, Stellaria media, Lithospermum arvense, Rorippa indica, Alopecurus aequalis, Alopecurus japonicus, Eleusine indica, Beckmannia syzigachne, Sclerochloa dura, Erigeron canadensis, Phleum paniculatum, Veronica, Bromus japonicus, Aegilops tauschii, Phalaris arundinacea, Amaranthus retroflexus, Chenopodium, Commelina communis, Cichorium endivia, Convolvulus arvensis, Cirsium arvense, Solanum nigrum, Acalypha australis, Digitaria sanguinalis, Echinochloa crusgalli, Setaria viridis, Setaria pumila, Leptochloa chinensis, Monochoria vaginalis, Sagittaria trifolia, Schoenoplectiella juncoides, Cyperus rotundus, Cyperus iria, Cyperus difformis, Fimbristylis, Portulaca oleracea, Xanthium sibiricum, Ipomoea nil, Eschenbachia japonica, etc.) and major crop seeds (wheat, maize, paddy rice, soybean, cotton, oilseed rape, millet, sorghum, potato, sesame, castor plant, Chinese cabbage, radish, etc.) were placed in plastic pots filled with soil and then covered with 0.5-2 cm of soil to allow them to grow in a favorable greenhouse environment. Two weeks after sowing, the test plants were treated at the stage of 2-3 leaves. The test compounds of the present invention were individually dissolved with acetone, then added with Tween® 80, with 1.5 L/ha of methyl oleate emulsifiable concentrate as a synergist, diluted into solution of a certain concentration using a certain amount of water, and sprayed to plants using a spray tower. After drug application, the experimental results on weeds were collected after 3 weeks of cultivation in a greenhouse. The compounds were applied at 120, 60, 30, and 15 g a.i./ha in triplicate, and the results were averaged.

Maize = assay: Post-emergence test, crop safety; conditions: in vivo, 3 weeks
From the text: as §1, §2, §3

Oilseed rape = assay: Post-emergence test, crop safety; conditions: in vivo, 3 weeks
From the text: as §1, §2, §3

Paddy rice = assay: Post-emergence test, crop safety; conditions: in vivo, 3 weeks
From the text: as §1, §2, §3

Radish = assay: Post-emergence test, crop safety; conditions: in vivo, 3 weeks
From the text: as §1, §2, §3

Wheat = assay: Post-emergence test, crop safety; conditions: in vivo, 3 weeks
From the text: as §1, §2, §3

Euphorbia helioscopia = assay: Activity assay of compositions, post-emergence spray of stems and leaves; assay type: in vivo; conditions: A 3 g a.i./ha, fresh weight inhibition, 21 days after treatment, listed as A
From the text: (§4) The required active ingredient B was purchased from a reagent company or a technical material manufacturer or synthesized by a conventional method. The active ingredient A was Compound 74 in Table 1. The technical materials were all dissolved with acetone solvents and diluted with aqueous solution of 0.1% Tween® 80 emulsifier, which should be used immediately after dilution.
(§5) Weeds were cultivated by a pot culture method. […] Weed seeds with plump and uniform grains were selected, soaked in lukewarm water at 25° C. for 6 hours, and accelerated to germinate in a 28° C. biochemical incubator (in darkness). The weed seeds that had just germinated were evenly placed on the surface of the soil and then covered with 0.5-1 cm soil according to the sizes of seeds.
(§6) The weeds were cultured in a controllable sunlight greenhouse at 20-30° C., in natural light, and with relative humidity of 57%-72%. The soil was loam with an organic matter content of 1.63%, a pH value of 7.1, alkali-hydrolyzable nitrogen of 84.3 mg/kg, rapidly available phosphorus of 38.5 mg/kg, and rapidly available potassium of 82.1 mg/kg.
(§7) Each treatment was repeated 4 times for 3 pots. Each pot was seeded with 20 weed seeds.
(§8) The drugs were applied once in total in the experiment. When at the stage of 1.5-2 leaves, the weeds were thinned out to maintain 10 strains per pot. Thirty strains were kept in each treatment and then continued to be cultured until the Erigeron canadensis reached 10 cm tall and other weeds in their 3-4 leaf stage for further treatment.
(§9) The well-cultured test materials were evenly placed on a 0.5 m^2 platform and foliage-sprayed by the 3WP-2000-type walking spray tower at a dosage of […] and a spray pressure of 0.3 MPa. After all the drug solution was sprayed, the air valve was closed. And 30 seconds later, the door of the spray tower was opened, and the nutritional bowl was taken out. Next, the air valve was opened, and the spray tube was cleaned by spraying 50 ml of water. The test materials were transferred to and routinely cultured in a greenhouse after the treatment.
(§10) A method for investigating absolute numbers was employed. The whole seedlings of the survival weeds were cut along the soil surface with a blade, and the fresh weight of the weeds was weighed by an analytical balance. For dead weeds, the fresh weight thereof was considered zero.
(§11) The investigation was performed 21 days after the treatment for once in total.
(§12) The theoretical fresh weight inhibition rate of a mixed combination of each treatment was calculated by the Gowing method (E0=X+Y−X*Y/100). Then compared with the measured inhibition rate (E), the type of the combined action of the combination of the two on weeds was evaluated, which was a synergistic effect when E−E0>10; an antagonistic effect when E−E0<−10%; an additional effect when −10≤E−E0≤100. An optimal ratio was determined according to factors such as the actual control effects, characteristics of herbicides, balance of the formulation, etc. In the formula, X represents the fresh weight inhibition rate of the active ingredient A in a dosage of P; Y represents the fresh weight inhibition rate of the active ingredient B in a dosage of Q. The statistical results are shown in Table 5 below.

Lindernia procumbens = assay: as above; assay type: in vivo; conditions: A 3 g a.i./ha, fresh weight inhibition, 21 days after treatment
From the text: as §4, §5, §6, §7, §8, §9, §10, §11, §12

Veronica [2] = assay: as above; assay type: in vivo; conditions: A 3 g a.i./ha, fresh weight inhibition, 21 days after treatment
Procedure: as §4, with “The active ingredient A was Compound 74 in Table 1.” left out
as §5, §7, §8, §9, §10, §11
as §12, with “Then compared with the measured inhibition rate (E), the type of the combined action of the combination of the two on weeds was evaluated, which was a synergistic effect when E−E0>10; an antagonistic effect when E−E0<−10%; an additional effect when −10≤E−E0≤100.” left out

Monochoria vaginalis = assay: as above; assay type: in vivo; conditions: A 3 g a.i./ha, fresh weight inhibition, 21 days after treatment
Procedure: as §4, with “The active ingredient A was Compound 74 in Table 1.” left out
as §5, §6, §7, §8, §9, §10, §11, §12

Compound: COCCOC(=O)c1nc(-c2ccc(C(F)(F)F)c(OC)c2F)nc(N)c1OC [Compound 74]
- activity level of plant damage (growth control rate), Veronica (Veronica [1]): 9
- activity level of plant damage (growth control rate), Chinese cabbage (Chinese cabbage): 0
- activity level of plant damage (growth control rate), Maize (Maize): 0
- activity level of plant damage (growth control rate), Oilseed rape (Oilseed rape): 0
- activity level of plant damage (growth control rate), Paddy rice (Paddy rice): 0
- activity level of plant damage (growth control rate), Radish (Radish): 0
- activity level of plant damage (growth control rate), Wheat (Wheat): 0
- Control effect of A applied alone in a corresponding dose (%) (Euphorbia helioscopia): 58.0%
- Control effect of A applied alone in a corresponding dose (%) (Lindernia procumbens): 37.7%
- Control effect of A applied alone in a corresponding dose (%) (Veronica [2]): 62.3%
- Control effect of A applied alone in a corresponding dose (%) (Monochoria vaginalis): 66.4%
